Reference: the supplement of paper PMC10307832

How the values were obtained:
Assay in all cases: relative viability (nuclei count vs DMSO), 5 days (fraction); higher = more cells survive
[1] = compound: CC1=CN=C(N=C1C2=CNC(=C2)C(=O)N[C@H](CO)C3=CC(=CC=C3)Cl)NC4=C(C=C(C=C4)F)Cl [VX-11e] + Cc1cc(Nc2cc(N3CCN(C)CC3)nc(Sc3ccc(NC(=O)C4CC4)cc3)n2)n[nH]1 [Tozasertib] (partner 0.1 µM)
Method in brief: (§1)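 Lung cancer cell lines in 1536-well plates were dosed by pin tool the day after seeding, either with one drug alone or with a fixed anchor-drug dose plus five library-drug doses (not always all listed) in √10 steps. After 5 days, cells were fixed and their nuclei stained in one step (final 0.05% Triton X-100, 1% formaldehyde, 1 ug/ml Hoechst), then counted on 4× images. Relative viability is the nuclei count in treated wells divided by that in vehicle wells. Values are medians of duplicate plates.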

[2] = compound: CC1=CN=C(N=C1C2=CNC(=C2)C(=O)N[C@H](CO)C3=CC(=CC=C3)Cl)NC4=C(C=C(C=C4)F)Cl [VX-11e] + N=C(N)NC(=N)NCCc1ccccc1 [Phenformin] (partner 250 µM)
Method in brief: as §1

[3] = compound: CC1=CN=C(N=C1C2=CNC(=C2)C(=O)N[C@H](CO)C3=CC(=CC=C3)Cl)NC4=C(C=C(C=C4)F)Cl [VX-11e] + CC1(C)CCC(c2ccc(Cl)cc2)=C(CN2CCN(c3ccc(C(=O)NS(=O)(=O)c4ccc(N[C@H](CCN5CCOCC5)CSc5ccccc5)c(S(=O)(=O)C(F)(F)F)c4)cc3)CC2)C1 [Navitoclax] (partner 0.5 µM)
Method in brief: as §1

[4] = compound: CC1=CN=C(N=C1C2=CNC(=C2)C(=O)N[C@H](CO)C3=CC(=CC=C3)Cl)NC4=C(C=C(C=C4)F)Cl [VX-11e]
Method in brief: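 Lung cancer cell lines received five library-drug doses (not always all listed) spaced by √10, pinned on vehicle-anchored 1536-well plates after an overnight stay at 37 °C. Five days later, with no medium change, nuclei were Hoechst-stained, imaged at 4× and counted with MetaXpress. Viability is treated-well nuclei relative to vehicle-well nuclei, as a median across plates. Passing plates had control CV below 25% and at least one doubling.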

Row | Cell Line | relative viability ([1]; first compound 0.04 µM) | relative viability ([1]; first compound 0.1265 µM) | relative viability ([1]; first compound 0.4 µM) | relative viability ([1]; first compound 1.265 µM) | relative viability ([1]; first compound 4 µM) | relative viability ([2]; first compound 0.04 µM) | relative viability ([2]; first compound 0.1265 µM) | relative viability ([2]; first compound 0.4 µM) | relative viability ([2]; first compound 1.265 µM) | relative viability ([2]; first compound 4 µM) | relative viability ([3]; first compound 0.04 µM) | relative viability ([3]; first compound 0.1265 µM) | relative viability ([3]; first compound 0.4 µM) | relative viability ([3]; first compound 1.265 µM) | relative viability ([3]; first compound 4 µM) | relative viability ([4]; 0.04 µM) | relative viability ([4]; 0.1265 µM) | relative viability ([4]; 0.4 µM) | relative viability ([4]; 1.265 µM) | relative viability ([4]; 4 µM)
1 | 201T | 0.99 | 0.923 | 0.941 | 0.909 | 0.774 | 0.445 | 0.476 | 0.38 | 0.453 | 0.418 | 1.23 | 1.16 | 1.2 | 1.17 | 1.08 | 0.971 | 0.985 | 0.883 | 0.691 | 0.951
2 | A549 |  |  |  |  |  | 0.151 | 0.155 | 0.0307 | 0.279 | 0.0557 | 1.22 | 1.11 | 0.984 | 0.257 | 0.111 | 0.98 | 0.868 | 0.806 | 0.671 | 0.122
3 | A-427 | 0.181 | 0.18 | 0.132 | 0.143 | 0.16 | 0.343 | 0.213 | 0.263 | 0.264 | 0.158 | 0.999 | 0.88 | 0.796 | 0.585 | 0.268 | 0.862 | 0.854 | 0.927 | 0.933 | 0.419
4 | ABC-1 | 0.137 | 0.219 | 0.175 | 0.123 | 0.188 | 0.205 | 0.277 | 0.224 | 0.243 | 0.281 |  |  |  |  |  | 0.83 | 0.888 | 0.938 | 0.83 | 0.723
5 | BEN |  | 0.477 | 0.642 | 0.456 | 0.417 |  | 0.267 | 0.256 | 0.299 | 0.253 | 0.0581 | 0.0703 | 0.0708 | 0.061 | 0.0537 |  | 0.903 | 1.03 | 0.662 | 0.782
6 | CAL-12T | 0.384 | 0.25 | 0.26 | 0.247 | 0.155 | 0.677 | 0.507 | 0.504 | 0.41 | 0.194 | 1.14 | 1.3 | 1.09 | 1.2 | 0.422 | 0.955 | 0.942 | 0.964 | 0.715 | 0.376
7 | COR-L23 | 0.157 | 0.142 | 0.138 | 0.124 | 0.127 | 0.52 | 0.409 | 0.471 | 0.428 | 0.276 | 1.25 | 1.13 | 0.924 | 0.681 | 0.305 | 1.17 | 0.92 | 0.975 | 0.778 | 0.358
8 | COR-L 105 | 0.341 | 0.342 | 0.367 | 0.721 | 0.268 | 0.489 | 0.487 | 0.391 | 0.366 | 0.227 | 0.591 | 0.759 | 0.55 | 0.692 | 0.284 | 0.845 | 0.894 | 0.845 | 0.516 | 0.383
9 | Calu-6 |  |  |  |  |  |  |  |  |  |  | 0.994 | 0.786 | 0.737 | 0.219 | 0.109 | 1.08 | 0.978 | 0.975 | 0.513 | 0.163
10 | ChaGo-K-1 | 0.219 | 0.233 | 0.234 | 0.188 | 0.186 | 0.435 | 0.478 | 0.382 | 0.472 | 0.407 | 0.616 |  | 1.07 | 0.781 | 0.787 | 0.926 | 0.903 | 0.925 | 1.03 | 0.905
11 | EBC-1 |  |  |  |  |  |  |  |  |  |  | 0.362 | 0.474 | 0.325 | 0.271 | 0.168 | 1.06 | 1.01 | 0.765 | 0.77 | 0.221
12 | EKVX | 0.385 | 0.398 | 0.342 | 0.257 | 0.163 | 0.211 | 0.237 | 0.13 | 0.216 | 0.197 | 0.847 | 0.935 | 0.926 | 0.831 | 0.601 | 0.906 | 1.03 | 0.953 | 0.898 | 0.489
13 | EMC-BAC-2 | 0.313 | 0.272 | 0.373 | 0.382 | 0.353 | 0.518 | 0.481 | 0.633 | 0.545 | 0.51 | 1.22 | 1.11 | 0.994 | 0.927 | 0.833 | 0.903 | 0.875 | 1.43 | 0.998 | 0.663
14 | EPLC-272H | 0.224 | 0.262 |  | 0.193 | 0.205 | 0.322 | 0.22 |  | 0.32 | 0.225 | 1.09 | 1.02 | 1.01 | 0.82 | 0.668 | 0.787 | 0.759 | 0.556 | 0.706 | 0.419
15 | H3255 | 0.732 | 0.698 | 0.562 | 0.595 | 0.724 | 0.359 | 0.411 | 0.378 | 0.362 | 0.319 | 0.526 | 0.451 | 0.657 | 0.614 | 0.496 | 1.03 | 0.925 | 0.896 | 0.911 | 0.875
16 | HARA | 0.106 | 0.118 | 0.119 | 0.0971 | 0.0712 | 0.453 | 0.431 | 0.414 | 0.399 | 0.314 | 1.16 | 1.1 | 1.13 | 1.13 | 0.968 | 0.969 | 0.939 | 0.832 | 0.427 | 0.326
17 | HCC-15 | 0.428 | 0.35 | 0.306 | 0.153 | 0.172 | 0.57 | 0.464 |  | 0.211 | 0.162 | 0.711 | 0.649 | 0.53 | 0.317 | 0.196 | 1.05 | 1.01 |  | 0.669 | 0.285
